Laboratory results: patent publication US9796733B2, “Imidazo-pyrazine derivatives useful as soluble guanylate cyclase activators” (Merck Sharp & Dohme Corp., priority 2014, dated 2017)

Columns and labels:
sGC α1/β1 heterodimer = target: T1, sGC α1/β1 heterodimer (Homo sapiens, UniProt Q02108+Q02153); experiment: Cell-based sGC functional assay (CASA assay): cGMP generation in CHO-K1/sGC cells, HTRF detection; details: for Emax: CHO-K1, percent activation relative to standard Compound A in CHO-K1/sGC cells, read-out: % Act.; for EC50: inflection point (IP) of cGMP generation in CHO-K1/sGC cells, 4P fit, activity expressed as percentage of Compound A
T1 construct: expressed in transfected cells; host or cells: CHO-K1 (clone #7, CHO-K1/sGC)
T1 sequence (Q02108 1-690): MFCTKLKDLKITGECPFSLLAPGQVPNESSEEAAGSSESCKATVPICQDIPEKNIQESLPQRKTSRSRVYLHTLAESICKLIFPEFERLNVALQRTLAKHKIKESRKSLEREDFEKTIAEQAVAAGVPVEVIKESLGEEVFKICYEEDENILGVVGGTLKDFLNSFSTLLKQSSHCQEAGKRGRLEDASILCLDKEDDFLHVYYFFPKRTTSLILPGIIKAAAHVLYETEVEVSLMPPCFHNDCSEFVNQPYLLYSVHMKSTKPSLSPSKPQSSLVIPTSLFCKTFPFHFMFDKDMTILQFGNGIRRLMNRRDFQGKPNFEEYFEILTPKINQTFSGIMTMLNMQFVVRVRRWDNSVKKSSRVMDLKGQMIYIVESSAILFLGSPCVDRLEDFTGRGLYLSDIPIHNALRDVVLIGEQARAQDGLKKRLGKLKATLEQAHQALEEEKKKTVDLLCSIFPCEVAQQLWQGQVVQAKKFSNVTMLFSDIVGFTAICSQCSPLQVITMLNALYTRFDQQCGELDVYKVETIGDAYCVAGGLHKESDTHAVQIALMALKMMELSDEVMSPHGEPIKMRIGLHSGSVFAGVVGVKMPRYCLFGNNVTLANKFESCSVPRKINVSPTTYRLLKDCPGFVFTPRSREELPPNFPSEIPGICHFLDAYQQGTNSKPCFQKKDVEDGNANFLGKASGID
T1 sequence (Q02153 1-619): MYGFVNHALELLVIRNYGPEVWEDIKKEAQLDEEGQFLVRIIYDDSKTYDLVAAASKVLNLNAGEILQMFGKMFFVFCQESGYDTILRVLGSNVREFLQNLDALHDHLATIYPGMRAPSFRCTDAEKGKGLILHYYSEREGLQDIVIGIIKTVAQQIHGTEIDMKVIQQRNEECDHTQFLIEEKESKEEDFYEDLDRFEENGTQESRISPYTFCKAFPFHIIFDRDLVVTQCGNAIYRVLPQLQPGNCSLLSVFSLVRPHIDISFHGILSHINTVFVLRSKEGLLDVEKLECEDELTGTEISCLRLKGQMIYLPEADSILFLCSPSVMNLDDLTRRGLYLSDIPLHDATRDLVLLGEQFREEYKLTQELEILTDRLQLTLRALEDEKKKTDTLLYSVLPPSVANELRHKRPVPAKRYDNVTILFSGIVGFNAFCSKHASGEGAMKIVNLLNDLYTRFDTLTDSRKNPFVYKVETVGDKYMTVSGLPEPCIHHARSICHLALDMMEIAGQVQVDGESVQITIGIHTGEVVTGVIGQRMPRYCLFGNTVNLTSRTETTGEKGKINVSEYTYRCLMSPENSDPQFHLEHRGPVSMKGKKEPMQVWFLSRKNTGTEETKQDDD
Method in brief: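 cGMP was quantified by HTRF after 1 hr, 37° C exposure of thawed CHO-K1 cells expressing sGC α1/β1 to compound, with or without 1 μM DETA-NO. IBMX (0.5 mM) blocked cGMP breakdown, and DMSO was 2.5% final. Percent of standard Compound A's maximal cGMP was fitted (4P) for inflection point.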

[1] = tested on: Spontaneously hypertensive rats (SHR); experiment: Acute efficacy in spontaneously hypertensive rats (SHR): telemetry blood pressure lowering after a single oral dose; type: in vivo, rat
Method in brief: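 Values are the maximum peak fall in systolic pressure after one oral dose (mpk), computed hourly against baseline from a vehicle dose given the day before. Rats were conscious, male, spontaneously hypertensive, with femoral-aortic telemetry recording 30 s every 10 min, 14 days post-surgery.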

Structure (SMILES)	Emax (sGC α1/β1 heterodimer) [%]	EC50 (sGC α1/β1 heterodimer) [nM]	Maximum peak decrease of systolic blood pressure (SBP) in SHR, Cat. ([1]; P.O. 3.0 mpk)	Maximum peak decrease of systolic blood pressure (SBP) in SHR, Cat. ([1]; P.O. 0.3 mpk)	Maximum peak decrease of systolic blood pressure (SBP) in SHR, Cat. ([1]; P.O. 1.0 mpk)
Nc1nc(-c2cn3ccnc3c(CCCC(F)(F)F)n2)nc2c1C(c1cncc(F)c1)(C1CC1)C(=O)N2 (stereo not drawn) [Example 356B, 4-amino-5-cyclopropyl-5-(5-fluoropyridin-3-yl)-2-(8-(4,4,4-trifluorobutyl)imidazo[1,2-a]pyrazin-6-yl)-5H-pyrrolo[2,3-d]pyrimidin-6(7H)-one]	108	487	A (Category A=SBP in SHRs<20 mmHg)		
CCCc1nc(-c2nc(N)c3c(n2)NC(=O)C3(c2ccc(Cl)cc2F)C2CC2)cn2ccnc12 (stereo not drawn) [Example 360A, 4-amino-5-(4-chloro-2-fluorophenyl)-5-cyclopropyl-2-(8-propylimidazo[1,2-a]pyrazin-6-yl)-5H-pyrrolo[2,3-d]pyrimidin-6(7H)-one]	129	43	B (Category B=SBP in SHRs 20-40 mmHg)		
CCCCc1nc(-c2nc(N)c3c(n2)NC(=O)C3(c2ccc(Cl)cc2F)C2CC2)cn2ccnc12 (stereo not drawn) [Example 369A, 4-amino-2-(8-butylimidazo[1,2-a]pyrazin-6-yl)-5-(4-chloro-2-fluorophenyl)-5-cyclopropyl-5H-pyrrolo[2,3-d]pyrimidin-6(7H)-one]	109	13		B (Category B=SBP in SHRs 20-40 mmHg)	
CCCCc1nc(-c2nc(N)c3c(n2)NC(=O)C3(c2ncc(Cl)cn2)C2CC2)cn2ccnc12 (stereo not drawn) [Example 372A, 4-amino-2-(8-butylimidazo[1,2-a]pyrazin-6-yl)-5-(5-chloropyrimidin-2-yl)-5-cyclopropyl-5H-pyrrolo[2,3-d]pyrimidin-6(7H)-one]	187	239			C (Category C=SBP in SHRs>40 mmHg)
Nc1nc(-c2cn3ccnc3c(CCCC(F)(F)F)n2)nc2c1C(c1ncc(Cl)cn1)(C1CC1)C(=O)N2 (stereo not drawn) [Example 373A, 4-amino-5-(5-chloropyrimidin-2-yl)-5-cyclopropyl-2-(8-(4,4,4-trifluorobutyl)imidazo[1,2-a]pyrazin-6-yl)-5H-pyrrolo[2,3-d]pyrimidin-6(7H)-one]	114	26		A (Category A=SBP in SHRs<20 mmHg)	
Nc1nc(-c2cn3ccnc3c(CCCC(F)(F)F)n2)nc2c1C(c1ccccn1)(C1CC1)C(=O)N2 (stereo not drawn) [Example 383B, 4-Amino-5-cyclopropyl-5-(pyridin-2-yl)-2-(8-(4,4,4-trifluorobutyl)imidazo[1,2-a]pyrazin-6-yl)-5H-pyrrolo[2,3-d]pyrimidin-6(7H)-one]	137	98			B (Category B=SBP in SHRs 20-40 mmHg)
